Results taken from the NIST ThermoML archive (doi:10.1021/je2009208).
± gives the expanded uncertainty stated by the source.

Key:
[1] = refractive index (Na D-line) (dimensionless); conditions: 293.15 K; 101.33 kPa; Liquid; Standard Abbe refractometry
[2] = 298.15 K; 101.33 kPa; Liquid; Vibrating tube method

refractive index [1] | SMILES | mass density [2]
1.3286 ± 0.0008 | CO [methanol] | 791.3 ± 0.2 kg/m3
1.3333 ± 0.0008 | O [water] | –

SMILES | refractive index [1] | mass density [2]
C=CC#N [acrylonitrile] | 1.3908 ± 0.0008 | 800.6 ± 0.2 kg/m3
